Key:
[1] = test system: immortalized human pleural mesothelial cells (ATCC CRL-9444); assay: TNF-α-induced IL-6 expression in mesothelial cells (ELISA); format: cell-based
Excerpt: In order to examine the efficacy of MMI-0100 ([…]; SEQ ID NO: 1) in inhibiting the production of inflammatory cytokines, an inflammatory response was triggered in vitro by applying TNF-α to immortalized human pleural mesothelial cells (ATCC CRL-9444). A mesothelial cell is a cell type that forms a monolayer of specialized pavement-like cells (mesothelium) that lines the body's abdominal cavities and internal organs. The primary function of this layer, the mesothelium, is to provide a slippery, non-adhesive, and protective surface. Mesothelial cells also are involved in transport of fluid and cells across the peritoneal (abdominal) cavities, antigen presentation, inflammation, tissue repair, coagulation, and tumor cell adhesion. It is well known that mesothelial cells play important role in the peritoneal inflammatory response. In response to bacterial products and macrophage-derived inflammatory cytokines (e.g., TNF-α), mesothelial cells produce Interleukin-1 (IL-1), Interleukin-6 (IL-6), and Interleukin-8 (IL-8), thus amplifying the inflammatory signals and recruiting leukocytes into the infected abdominal cavity.
Expression of inflammatory cytokines was induced by applying 1 or 10 ng/ml of TNF-α to cultured mesothelial cells. Briefly, immortalized human pleural mesothelial cells (ATCC CRL-9444) were grown in Medium199 with Earle's BSS, 0.75 mM L-glutamine (Mediatech Inc., Manassas, Va.), 1.25 g/l sodium bicarbonate (Sigma), 3.3 nM epidermal growth factor (EGF) (MBL International, Woburn, Mass.), 40 nM hydrocortisone (Sigma), 870 nM insulin (MBL International), 20 mM HEPES (Sigma), trace elements mixture B (Mediatech Inc., Waltham, Mass.), 10% fetal bovine serum (FBS) (Hyclone), and 1% penicillin/streptomycin (Mediatech Inc., Waltham, Mass.). […] Human mesothelial cells were treated with two different concentrations (1 and 10 ng/mL) of TNF-α for 2, 6, 12, and 24 hours (data not shown). […] Without TNF-α stimulation, mesothelial cells made negligible amounts of IL-6. […] In subsequent experiments designed to determine whether the MMI-0100 peptide ([…]; SEQ ID NO: 1) could reduce TNF-α induced IL-6 expression, both 1 and 10 ng/mL of TNF-α were selected as stimuli. 10 ng/mL of TNF-α is regarded as more physiologically relevant for mesothelial cells.
Prior to cytokine and/or inhibitor treatment, cells were allowed to acclimate in serum-free media consisting of only Medium 199 with Earle's BSS, 0.75 mM L-glutamine, 1.25 g/l sodium bicarbonate, 20 mM HEPES, trace elements mixture B (Mediatech Inc., Waltham, Mass.), and 1% penicillin/streptomycin (Mediatech Inc., Waltham, Mass.) for 24 hours. After the adapting period, cytokines (TNF-α and IL-1β) with or without MMI-0100 peptide or Rottlerin (Tocris Bioscience, Ellisville, Mo.; IC50=5 μM) were added to the media in order to compare the efficacy of MMI-0100 ([…]; SEQ ID NO: 1) with that of Rottlerin. Specifically, serum-starved mesothelial cells were treated with two different concentrations (1000 μM or 3000 μM) of MMI-0100 ([…] (SEQ ID NO: 1)) at three different time points (6 hours, 12 hours, and 24 hours) using two different concentrations of TNF-α (1 ng/ml or 10 ng/ml) or using 1 ng/ml of IL-1β. Average concentration of IL-6 (pg/ml per 10^5 cells) at each time was determined by cytokine-specific ELISA.

[2] = test system: human saphenous vein (HSV); assay: Sodium nitroprusside-induced relaxation of human saphenous vein in muscle bath; conditions: control peptide 50 or 100 μM; data not shown
Protocol: In preparation for testing vein segment functional viability, HSV rings were weighed and their lengths recorded. To focus on smooth muscle responses, the endothelium was mechanically denuded by rolling the luminal surface of each ring at the tip of a fine vascular forceps before suspension in a muscle bath containing a bicarbonate buffer (120 mM NaCl, 4.7 mM KCl, 1.0 mM MgSO4, 1.0 mM NaH2PO4, 10 mM glucose, 1.5 mM CaCl2, and 25 mM […], pH 7.4) equilibrated with 95% O2 and 5% CO2 at 37° C. The rings were stretched and the length progressively adjusted until maximal tension was obtained. Normalized reactivity was obtained by determining the passive length-tension relationship for each vessel segment. Rings were maintained at a resting tension of 1 g, which produces maximal responses to contractile agonists as previously determined, and equilibrated for 2 hours in buffer. Force measurements were obtained using a Radnoti Glass Technology (Monrovia, Calif.) force transducer (159901A) interfaced with a Powerlab data acquisition system and Chart software (AD Instruments, Colorado Springs, Colo.).
HSV rings were first contracted with 110 mM KCl (with equimolar replacement of NaCl in bicarbonate buffer) and the generated force was measured. 110 mM KCl causes membrane depolarization, leading to contraction of vessels containing functionally viable smooth muscle. After multiple KCl challenges, rings were washed and allowed to equilibrate in bicarbonate solution for 30 min, and then contracted with phenylephrine (PE, 10^−7-10^−6 M). Rings were relaxed with a cumulative log dose of sodium nitroprusside (SNP), a nitric oxide donor, and the force generated was recorded. All rings were again washed and equilibrated in buffer for 15 minutes. Rings were then incubated with either buffer alone or buffer plus 100 μM of MMI-0100 ([…] (SEQ ID NO: 1)) for 2 hours, followed by treatment with the same doses of PE and SNP, and the forces generated again recorded. Measured force was normalized for ring weight and length and percent relaxation was calculated; force generated with 10^−6M of PE was set as 0% relaxation.
The enhancing effect of MMI-0100 ([…]; SEQ ID NO: 1) on smooth muscle relaxation was examined by pre-treating harvested human saphenous vein (HSV) with MMI-0100 ([…]; SEQ ID NO: 1) before SNP treatment. Segments of human saphenous vein (HSV) were equilibrated in a muscle bath and pretreated with a control solution (0.01M phosphate-buffered solution, PBS) or MMI-0100 ([…] (SEQ ID NO: 1); 30 μM, 2 hrs), contracted with norepinephrine. and relaxed with increasing doses of sodium nitroprusside (SNP, 0-1 μM). Percentage of relaxation at 0, 0.01, 0.1, and 1.0 μM of SNP was measured. […]

| Compound | IL-6 expression compared with TNF-α alone ([1]; 1 ng/mL TNF-α, 6 hrs, Rottlerin) | IL-6 expression ([1]; 1 ng/mL TNF-α, Rottlerin) | IL-6 expression ([1]; 10 ng/mL TNF-α, Rottlerin 1 μM, twenty-four hours) | relaxation response compared to untreated control [2] |
| --- | --- | --- | --- | --- |
| CC(=O)c1c(O)c(C)c(O)c(Cc2c(O)c3c(c(C(=O)/C=C/c4ccccc4)c2O)OC(C)(C)C=C3)c1O [Rottlerin, reference compound] | significantly increased | ineffective | reduced IL-6 expression | – |
| YARAAARQARA (mammal) [PTD peptide, control peptide (transduction domain, PTD peptide), reference compound] | – | – | – | no significant difference |
